Assays:
[1] = system: Monocotyledonous and dicotyledonous test plants; experiment: Example B2: post-emergence herbicidal action, 2 kg of AS/ha; assay type: in vivo; set-up: key: 1 = complete damage, 9 = no effect; conditions: 4- to 6-leaf stage, about 18 days, scale 1-9; for post-emergence action rating, Avena: test plant Avena; for post-emergence action rating, Setaria: test plant Setaria; for post-emergence action rating, Sinapis: test plant Sinapis; for post-emergence action rating, Solanum: test plant Solanum; for post-emergence action rating, Stellaria: test plant Stellaria
Method: Monocotyledonous and dicotyledonous test plants are grown in plastic pots with standard soil in a greenhouse and, in the 4- to 6-leaf stage, are sprayed with an aqueous suspension of the test substances of the formula 1, prepared from a 25% wettable powder (Example F3, b) according to WO 97134485) or with an emulsion of the test substances of the formula I, prepared from a 25% emulsion concentrate (Example F1, c) according to WO 97/34485), corresponding to a dosage of 2 kg of AS/ha (500 l of water/ha). The test plants are then grown further under optimum conditions in a greenhouse. After a test period of about 18 days, the test is evaluated with a nine-level scale of rating (1=complete damage, 9=no effect). Ratings of 1 to 4 (in particular 1 to 3) mean good to very good herbicidal action. In this test, the compounds of the formula I show strong herbicidal action.

[2] = system: Monocotyledonous and dicotyledonous test plants; experiment: Example B1: pre-emergence herbicidal action, 2 kg of AS/ha; assay type: in vivo; conditions: 3 weeks, scale 1-9; for pre-emergence action rating, Avena: test plant Avena; for pre-emergence action rating, Cyperus: test plant Cyperus; for pre-emergence action rating, Setaria: test plant Setaria; for pre-emergence action rating, Sinapis: test plant Sinapis; for pre-emergence action rating, Solanum: test plant Solanum; for pre-emergence action rating, Stellaria: test plant Stellaria
Method: Monocotyledonous and dicotyledonous test plants are sown in standard soil in plastic pots. Immediately after sowing, the test substances are sprayed on (500 l of water/ha) as an aqueous suspension (prepared from a 25% wettable powder (Example F3, b) according to WO 97/34485) or emulsion (prepared from a 25% emulsion concentrate (Example F1, c)), corresponding to a dosage of 2 kg of AS/ha. The test plants are then grown under optimum conditions in a greenhouse. After a test period of 3 weeks, the test is evaluated with a nine-level scale of ratings (1=complete damage, 9=no effect). Ratings of 1 to 4 (in particular 1 to 3) mean good to very good herbicidal action.

Row | SMILES | melting point | post-emergence action rating, Avena [1] | post-emergence action rating, Setaria [1] | post-emergence action rating, Sinapis [1] | post-emergence action rating, Solanum [1] | post-emergence action rating, Stellaria [1] | pre-emergence action rating, Avena [2] | pre-emergence action rating, Cyperus [2] | pre-emergence action rating, Setaria [2] | pre-emergence action rating, Sinapis [2] | pre-emergence action rating, Solanum [2] | pre-emergence action rating, Stellaria [2]
1 | Cc1nc(C(F)(F)F)ccc1C(=O)C1=C(N)C2CCC(C2)C1=O (stereo not shown) [Compound 1.399, 4-amino-3-(2-methyl-6-trifluoromethylpyridine-3-carbonyl)bicyclo[3.2.1]oct-3en-2-one] | 262 to 263 °C | – | – | – | – | – | – | – | – | – | – | –
2 | CCC(=O)OC1=C(C(=O)c2ccc(C(F)(F)F)nc2C)C(=O)C2CCC1C2 (stereo not shown) [Compound 1.404] | – | 2 | 2 | 1 | 1 | 2 | 2 | 1 | 1 | 2 | 1 | 2
3 | C=CC(=O)OC1=C(C(=O)c2ccc(C(F)(F)F)nc2C)C(=O)C2CCC1C2 (stereo not shown) [Compound 1.405] | – | 2 | 2 | 1 | 2 | 2 | 2 | 1 | 1 | 1 | 1 | 2
4 | CC=CC(=O)OC1=C(C(=O)c2ccc(C(F)(F)F)nc2C)C(=O)C2CCC1C2 (stereo not shown) [Compound 1.406] | – | 2 | 2 | 1 | 1 | 2 | 2 | 1 | 1 | 1 | 1 | 2
5 | CCOC(=O)OC1=C(C(=O)c2ccc(C(F)(F)F)nc2C)C(=O)C2CCC1C2 (stereo not shown) [Compound 1.409] | – | 2 | 1 | 1 | 1 | 2 | 1 | 1 | 1 | 1 | 1 | 1
6 | Cc1nc(C(F)(F)C(F)(F)C(F)(F)C(F)(F)F)ccc1C(=O)C1=C(O)C2CCC(C2)C1=O (stereo not shown) [Compound 1.411] | – | 2 | 2 | 1 | 2 | 2 | 3 | 2 | 1 | 2 | 1 | 2
7 | Cc1nc(C(F)(F)F)ccc1C(=O)C1=C(Sc2ccc(Cl)cc2)C2CCC(C2)C1=O (stereo not shown) [Compound 1.412, 4-(4-chlorophenylsulfanyl)-3-(2-methyl-6-trifluoromethylpyridine-3-carbonyl)bicyclo[3.2.1]oct-3-en-2-one] | 130 to 131 °C | – | – | – | – | – | – | – | – | – | – | –
8 | Cc1nc(C(F)(F)F)ccc1C(=O)C1=C(S(=O)(=O)c2ccc(Cl)cc2)C2CCC(C2)C1=O (stereo not shown) [Compound 1.414, 4-(4-chlorobenzenesulfonyl)-3-(2-methyl-6-trifluoromethylpyridine-3-carbonyl)bicyclo[3.2.1]oct-3-en-2-one] | 166 to 167 °C | – | – | – | – | – | – | – | – | – | – | –
9 | CSc1nc(C(=O)C2=C(O)C3CCC(C3)C2=O)ccc1C(F)(F)F (stereo not shown) [Compound 2.03] | 107 to 110 °C | – | – | – | – | – | – | – | – | – | – | –
10 | COc1nc(C(=O)C2=C(O)C3CCC(C3)C2=O)ccc1C(F)(F)F (stereo not shown) [Compound 2.038] | 111 to 113 °C | – | – | – | – | – | – | – | – | – | – | –
11 | O=C(C1=C(O)C2CCC(C2)C1=O)c1ncc(C(F)(F)F)cc1Cl (stereo not shown) [Compound 2.044] | 105 to 106 °C | – | – | – | – | – | – | – | – | – | – | –
12 | O=C(C1=C(O)C2CCC(C2)C1=O)c1ccnc(C(F)(F)F)c1 (stereo not shown) [Compound 3.001] | 95 to 97 °C | – | – | – | – | – | – | – | – | – | – | –
13 | CSc1nccc(C(=O)C2=C(O)C3CCC(C3)C2=O)c1C#N (stereo not shown) [Compound 3.055] | 108 to 110 °C | – | – | – | – | – | – | – | – | – | – | –
14 | Cc1nc(C(F)(F)F)ccc1C(=O)C1=C(O)C(C)(C)ON(C)C1=O [Compound 4.009] | – | 1 | 1 | 1 | 1 | 1 | 1 | 2 | 1 | 2 | 1 | 3
15 | COCc1nc(C(F)(F)F)ccc1C(=O)C1=C(O)C(C)(C)ON(C)C1=O [Compound 4.021] | – | 2 | 2 | 1 | 1 | 2 | 2 | 1 | 2 | 2 | 1 | 2
16 | Cc1nc(C(F)(F)Cl)ccc1C(=O)C1=C(O)C(C)(C)ON(C)C1=O [Compound 4.124] | – | 2 | 2 | 1 | 1 | 2 | 2 | 1 | 2 | 2 | 1 | 2
17 | CC1=CC(C)(C)C(O)=C(C(=O)c2ccc(C(F)(F)F)nc2C)C1=O [Compound 5.008] | – | 2 | 3 | 1 | 1 | 2 | 2 | 1 | 1 | 2 | 1 | 2
18 | Cc1nc(C(F)(F)F)ccc1C(=O)C1=C(O)C(C)(C)C=C([S+](C)[O-])C1=O (stereo not shown) [Compound 5.083] | 161 to 162 °C | – | – | – | – | – | – | – | – | – | – | –
19 | Cc1nc(C(F)(F)F)ccc1C(=O)C1=C(O)C(C)(C)C=C(S(C)(=O)=O)C1=O [Compound 5.084] | 215 to 216 °C | – | – | – | – | – | – | – | – | – | – | –
20 | Cc1nc(C(F)(F)F)ccc1C(=O)C1=C(O)CC(NC(=O)C(C)C)CC1=O (stereo not shown) [Compound 6.041] | 186 to 187 °C | – | – | – | – | – | – | – | – | – | – | –
21 | Cc1nc(C(F)(F)F)ccc1C(=O)C1=C(O)CC(NC(=O)Nc2ccccc2)CC1=O (stereo not shown) [Compound 6.076] | 195 to 196 °C | – | – | – | – | – | – | – | – | – | – | –
22 | Cc1nc(C(F)(F)F)ccc1C(=O)C1=C(O)CC(NC(=O)NC(C)(C)C)CC1=O (stereo not shown) [Compound 6.111] | 163 to 164 °C | – | – | – | – | – | – | – | – | – | – | –
